In US20230399312A1, “SUBSTITUTED PYRIMIDINES AND METHODS OF USE” (THERAVANCE BIOPHARMA R&D IP, LLC, priority 2020, published 2023):
pKi: −log10 of the molar value.

Tests used:
[1] = target: T1, recombinant human ALK5 (TGF-βR1) protein (Homo sapiens, UniProt P36897); experiment: Biochemical ALK5 (TGF-βR1) assay to measure pKi (LANCE Ultra ULight kinase assay); settings: apparent pKi, converted from pIC50 by Cheng-Prusoff
T1 construct: purchased Life Technologies PR9075A
T1 sequence (P36897 34-503): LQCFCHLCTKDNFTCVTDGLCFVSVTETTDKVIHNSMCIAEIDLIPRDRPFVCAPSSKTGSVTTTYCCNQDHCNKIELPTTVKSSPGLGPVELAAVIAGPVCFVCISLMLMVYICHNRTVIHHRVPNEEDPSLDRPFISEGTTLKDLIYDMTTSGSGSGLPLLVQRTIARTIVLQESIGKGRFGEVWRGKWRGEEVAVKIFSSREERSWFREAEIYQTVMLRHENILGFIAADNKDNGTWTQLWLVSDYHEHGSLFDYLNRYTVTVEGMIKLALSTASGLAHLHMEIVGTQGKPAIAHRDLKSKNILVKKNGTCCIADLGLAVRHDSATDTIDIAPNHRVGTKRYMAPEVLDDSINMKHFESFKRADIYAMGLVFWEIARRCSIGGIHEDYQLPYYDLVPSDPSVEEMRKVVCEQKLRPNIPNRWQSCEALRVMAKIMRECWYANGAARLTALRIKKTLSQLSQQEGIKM
Outline: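 Europium TR-FRET kinase assay: the enzyme is exposed to compound for 60 min at room temperature, and reaction with ATP runs 60 min at 37 °C. Percent inhibition relative to DMSO and SD-208 controls gives pIC50, which is converted to pKi.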

[2] = test system: TGF-β-stimulated SMAD3 phosphorylation in BEAS-2B cells; experiment: Cellular ALK5 potency assay, inhibition of TGF-β stimulated pSMAD3 formation in BEAS-2B cells; format: cell-based; settings: Homo sapiens, pSMAD3, TGF-β 10 ng/mL, read-out: BEAS2B pIC50 (converted)
Outline: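 Potency is expressed as pIC50, based on dose-dependent reduction of TGF-β-induced pSMAD3 AlphaLISA signal relative to stimulated cells without compound. BEAS-2B cells received compound 1 h before a 30 min, 10 ng/mL TGF-β challenge.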

| Structure (SMILES) | pKi [1] | IC50 [2] [nM] |
| --- | --- | --- |
| Cc1cccc(-c2nccc(Nc3ccnc(Nc4ccc(N5CCNCC5CC(=O)O[C@@H]5CCN(C)C5)cc4)n3)n2)n1 (mixture of isomers) [Compound 103, (R)-1-methylpyrrolidin-3-yl 2-(1-(4-((4-((2-(6-methylpyridin-2-yl)pyrimidin-4-yl)amino)pyrimidin-2-yl)amino)phenyl)piperazin-2-yl)acetate] | 8.50 to 9.40 | 200 to 1260 |
| Cc1cccc(-c2nccc(Nc3ccnc(Nc4ccc(Cl)c(NC(=O)C5CCNCC5)c4)n3)n2)n1 [Compound 135, N-[2-chloro-5-[[4-[[2-(6-methyl-2-pyridyl)pyrimidin-4-yl]amino]pyrimidin-2-yl]amino]phenyl]piperidine-4-carboxamide] | 9.50 to 10.40 | ≤ 20 |
| Cc1cccc(-c2nccc(Nc3ccnc(Nc4ccc(CN5CC6CCCC(C5)N6)cc4)n3)n2)n1 [Compound 177, N2-[4-(3,9-diazabicyclo[3.3.1]nonan-3-ylmethyl)phenyl]-N4-[2-(6-methyl-2-pyridyl)pyrimidin-4-yl]pyrimidine-2,4-diamine] | 9.50 to 10.40 | 25.1 to 158 |
| Cc1cccc(-c2nccc(Nc3ccnc(Nc4cnn(CC5CNC5)c4)n3)n2)n1 [Compound 181, N2-[1-(azetidin-3-ylmethyl)pyrazol-4-yl]-N4-[2-(6-methyl-2-pyridyl)pyrimidin-4-yl]pyrimidine-2,4-diamine] | 9.50 to 10.40 | 200 to 1260 |
| Cc1cccc(-c2nccc(Nc3ccnc(Nc4cccc(C(=O)OC5CCNCC5)c4)n3)n2)n1 [Compound 66, 4-piperidyl 3-[[4-[[2-(6-methyl-2-pyridyl)pyrimidin-4-yl]amino]pyrimidin-2-yl]amino]benzoate] | 8.50 to 9.40 | 25.1 to 158 |
| Cc1cccc(-c2nccc(Nc3ccnc(Nc4ccc(NC(=O)N5CCN[C@@H](CO)C5)cc4)n3)n2)n1 [Compound 276, (3R)-3-(hydroxymethyl)-N-[4-[[4-[[2-(6-methyl-2-pyridyl)pyrimidin-4-yl]amino]pyrimidin-2-yl]amino]phenyl]piperazine-1-carboxamide] | 9.50 to 10.40 | 25.1 to 158 |
| Cc1cccc(-c2nccc(Nc3ccnc(Nc4cccc(CN5C6CCC5CNC6)c4)n3)n2)n1 [Compound 424, N2-[3-(3,8-diazabicyclo[3.2.1]octan-8-ylmethyl)phenyl]-N4-[2-(6-methyl-2-pyridyl)pyrimidin-4-yl]pyrimidine-2,4-diamine] | 9.50 to 10.40 | 25.1 to 158 |
| Cc1cccc(-c2nccc(Nc3ccnc(Nc4ccc(N5CC(CN)C5)cc4)n3)n2)n1 [Compound 186, N2-[4-[3-(aminomethyl)azetidin-1-yl]phenyl]-N4-[2-(6-methyl-2-pyridyl)pyrimidin-4-yl]pyrimidine-2,4-diamine] | 9.50 to 10.40 | 25.1 to 158 |
| Cc1cccc(-c2nccc(Nc3ccnc(Nc4ccc(O)cc4)n3)n2)n1 [Compound 285, 4-[[4-[[2-(6-methyl-2-pyridyl)pyrimidin-4-yl]amino]pyrimidin-2-yl]amino]phenol] | 8.50 to 9.40 | 25.1 to 158 |
| Cc1cccc(-c2nccc(Nc3ccnc(Nc4ccc(NC[C@@H]5CCCN5)cc4)n3)n2)n1 [Compound 342, N4-[2-(6-methyl-2-pyridyl)pyrimidin-4-yl]-N2-[4-[[(2S)-pyrrolidin-2-yl]methylamino]phenyl] pyrimidine-2,4-diamine] | 9.50 to 10.40 | 25.1 to 158 |
| COC(=O)C1CN(CCNc2ccc(Nc3nccc(Nc4ccnc(-c5cccc(C)n5)n4)n3)cc2)CCN1C (stereo not drawn) [Compound 236, methyl 1-methyl-4-[2-[4-[[4-[[2-(6-methyl-2-pyridyl)pyrimidin-4-yl]amino]pyrimidin-2-yl]amino]anilino]ethyl] piperazine-2-carboxylate] | 8.50 to 9.40 | 25.1 to 158 |
| Cc1cccc(-c2nccc(Nc3ccnc(Nc4ccc(S(=O)(=O)N(C)CCN)cc4)n3)n2)n1 [Compound 63, N-(2-aminoethyl)-N-methyl-4-[[4-[[2-(6-methyl-2-pyridyl)pyrimidin-4-yl]amino]pyrimidin-2-yl]amino]benzenesulfonamide] | 9.50 to 10.40 | 25.1 to 158 |
| Cc1cccc(-c2nccc(Nc3ccnc(Nc4cccc(NC(=O)C5CCN(C6CCN(C)CC6)CC5)c4)n3)n2)n1 [Compound 282, 1-(1-methyl-4-piperidyl)-N-[3-[[4-[[2-(6-methyl-2-pyridyl)pyrimidin-4-yl]amino]pyrimidin-2-yl]amino]phenyl]piperidine-4-carboxamide] | 9.50 to 10.40 | 25.1 to 158 |
| CC(=O)N1CCN(c2ccc(Nc3nccc(Nc4ccnc(-c5cccc(C)n5)n4)n3)cc2)CC1 [Compound 261, 1-[4-[4-[[4-[[2-(6-methyl-2-pyridyl)pyrimidin-4-yl]amino]pyrimidin-2-yl]amino]phenyl]piperazin-1-yl]ethanone] | ≥ 10.50 | ≤ 20 |

More lines, main results first:

| pKi [1] | Structure (SMILES) | IC50 [2] [nM] |
| --- | --- | --- |
| 8.50 to 9.40 | COC(=O)C1CN(Cc2ccc(Nc3nccc(Nc4ccnc(-c5cccc(C)n5)n4)n3)cc2)CCN1C(C)C (stereo not drawn) [Compound 481, methyl 1-isopropyl-4-[[4-[[4-[[2-(6-methyl-2-pyridyl)pyrimidin-4-yl]amino]pyrimidin-2-yl]amino]phenyl]methyl] piperazine-2-carboxylate] | 25.1 to 158 |
| 9.50 to 10.40 | COC(=O)C1CCCN(Cc2ccc(Nc3nccc(Nc4ccnc(-c5cccc(C)n5)n4)n3)cc2)C1 (stereo not drawn) [Compound 516, methyl 1-[[4-[[4-[[2-(6-methyl-2-pyridyl)pyrimidin-4-yl]amino]pyrimidin-2-yl]amino]phenyl]methyl] piperidine-3-carboxylate] | 25.1 to 158 |
| 9.50 to 10.40 | Cc1cccc(-c2nccc(Nc3ccnc(Nc4ccc(C(=O)OC[C@H]5CCCNC5)nc4)n3)n2)n1 [Compound 620, [(3S)-3-piperidyl]methyl 5-[[4-[[2-(6-methyl-2-pyridyl)pyrimidin-4-yl]amino]pyrimidin-2-yl]amino]pyridine-2-carboxylate] | 25.1 to 158 |
| 8.50 to 9.40 | COc1cc(Nc2nccc(Nc3ccnc(-c4cccc(C)n4)n3)n2)ccc1NC(=O)C1CCNCC1 [Compound 511, N-[2-methoxy-4-[[4-[[2-(6-methyl-2-pyridyl)pyrimidin-4-yl]amino]pyrimidin-2-yl]amino]phenyl]piperidine-4-carboxamide] | 25.1 to 158 |
| 9.50 to 10.40 | Cc1cccc(-c2nccc(Nc3ccnc(Nc4ccc(CN5CCCC(C(=O)O)C5)cc4)n3)n2)n1 (stereo not drawn) [Compound 444, 1-[[4-[[4-[[2-(6-methyl-2-pyridyl)pyrimidin-4-yl]amino]pyrimidin-2-yl]amino]phenyl]methyl] piperidine-3-carboxylic acid] | 25.1 to 158 |
| 9.50 to 10.40 | Cc1cccc(-c2nccc(Nc3ccnc(Nc4ccc(N5CCNCC5)cc4)n3)n2)n1 [Compound 418, N4-(2-(6-methylpyridin-2-yl)pyrimidin-4-yl)-N2-(4-(piperazin-1-yl)phenyl)pyrimidine-2,4-diamine] | 25.1 to 158 |
| 7.50 to 8.40 | Cc1cccc(-c2nccc(Nc3ccnc(Nc4cc(C(=O)O[C@H]5CCNC5)ccn4)n3)n2)n1 [Compound 632, [(3S)-pyrrolidin-3-yl] 2-[[4-[[2-(6-methyl-2-pyridyl)pyrimidin-4-yl]amino]pyrimidin-2-yl]amino]pyridine-4-carboxylate] | 25.1 to 158 |
